According to patent publication US7091038B2, “Ecdysone receptor-based inducible gene expression system” (RheoGene, Inc., priority 2000, dated 2006):

Columns and labels:
[1] = test system: GAL4EcR + VP16RXR; assay: Transactivation of reporter gene through switch 1.1 in 3T3 cells; settings: GAL4CfEcRDEF/VP16MmRXRDEF (switch 1.1), 1.0 μM ligand, 48 hr
Text: (§1) In various cellular backgrounds, including mammalian cells, insect ecdysone receptor (EcR) heterodimerizes with retinoid X receptor (RXR) and, upon binding of ligand, transactivates genes under the control of ecdysone response elements. […] The prepared receptor constructs comprise a ligand binding domain of EcR and of RXR or of USP; a DNA binding domain of GAL4 or of EcR; and an activation domain of VP16. The reporter constructs include a reporter gene, luciferase or LacZ, operably linked to a synthetic promoter construct that comprises either GAL4 or EcR/USP binding sites (response elements). Various combinations of these receptor and reporter constructs were cotransfected into CHO, NIH3T3, CV1 and 293 cells.
The same procedures described for CHO cells were followed for 3T3 cells as well with two modifications. The cells were plated when they reached 50% confluency. 125,000 or 50,000 or 25,000 cells were plated per well of 6- or 12- or 24-well plates respectively.

[2] = test system: GAL4RXR + VP16CfEcR; assay: Transactivation of reporter gene through switch 1.3 in 3T3 cells; settings: GAL4MmRXRDEF/VP16CfEcRCDEF (switch 1.3), 1.0 μM ligand
Text: as §1
The same procedures described for CHO cells were followed for 3T3 cells as well with two modifications. The cells were plated when they reached 50% confluency. 125,000 or 50,000 or 25,000 cells were plated per well of 6- or 12- or 24-well plates respectively. […] The ligand treatments were performed as described in the CHO cell section above.

[3] = test system: CfEcR; assay: Transactivation through CfEcR- versus DmEcR-based switches in mammalian cell lines (Tables 1–4); design: species or system Choristoneura fumiferana
Method: Cells were harvested 24–48 hr after adding ligands. […] Twenty μl of lysate was assayed.

[4] = test system: EcR/RXR receptor combinations; assay: Truncated CfEcR and MmRXR receptor combinations, luciferase reporter in NIH3T3 cells; type: cell-based, Choristoneura fumiferana; Mus musculus; settings: 0, 1, 5 or 25 uM ligand for 48 hr, FIGS. 11–14
Method: Briefly, polynucleotides encoding EcR or RXR receptors were truncated at the junctions of A/B, C, D, E and F domains and fused to either a GAL4 DNA binding domain encoding polynucleotide (SEQ ID NO: 43) for CfEcR, or a VP16 activation domain encoding polynucleotide (SEQ ID NO: 49) for MmRXR as described in Example 1. The resulting receptor truncation/fusion polypeptides were assayed in NIH3T3 cells. Plasmid pFRLUC (Stratagene) encoding a luciferase polypeptide was used as a reporter gene construct and pTKRL (Promega) encoding a Renilla luciferase polypeptide under the control of the constitutive TK promoter was used to normalize the transfections as described above. The analysis was performed in triplicates and mean luciferase counts were determined as described above. […]

[5] = test system: CfEcRDEF:MmRXRDEF; assay: CfEcR-based yeast two-hybrid assay, LacZ reporter pSH118; type: cell-based, Choristoneura fumiferana; Mus musculus; settings: yeast strain comprising CfEcRDEF:MmRXRDEF; 0–100 μM ligand for four hours; FIGS. 18 and 19
Text: This construct results in a LexA:CfEcRDEF fusion that is expressed under the GAL1 promoter.
The D, E, and F domains from mouse (Mus musculus) RXR α (“MmRXRDEF”; SEQ ID NO: 22) were fused to a B42 transactivation domain (“B42AD”; SEQ ID NO: 53) and placed under the control of a GAL1 promoter (SEQ ID NO: 73) in pB42AD (CLONTECH). This construct results in a B42AD:MmRXR-DEF fusion that is expressed under the GAL 1 promoter.
A reporter plasmid comprising a β-galactosidase gene (LacZ; SEQ ID NO: 74) under the control of an 8XLexA operon response element (“8XlexAop”; SEQ ID NO: 75) operably linked to a minimal TATAA region from the GAL1 promoter (p8op-lacZ from CLONTECH) was used to monitor inducible gene expression.
Saccharomyces cerevisiae yeast cells (EGY48; CLONTECH) were used in these experiments. Cells were maintained in liquid culture media with the appropriate drop out amino acids. Standard methods for culture and maintenance of the cells were followed. […]
DNA constructs pSH118, CfEcRDEF, and MmRXRA/BCDEF, MmRXRDEF, or […] were transfected into yeast cells. […] A colony from each group of transformants was grown in the liquid culture in the presence of 0, 0.04, 0.2, 1, 5 and 25 μM GS™-E. The reporter activity was measured as described above 4 hours after adding ligand. Total RLUs were calculated and the numbers on the bars of FIG. 16 show maximum fold induction observed for that group (see FIGS. 16 and 17).
The best performing transformed yeast strain from the analysis above comprising CfEcRDEF:MmRXRDEF was used to determine the induction activity of three steroid ligands (20E, PonA, MurA) and four non-steroid ligands (GS™-E, RH2485, RH5992, RH5849) in this yeast-based format. The yeast cells were cultured in the presence of 0, 0.l, 1, 10, 50 and 100 μM ligands for four hours and the reporter activity was measured as described above. Total RLUs were calculated and the numbers on the top of the bars of FIG. 18 show the maximum fold induction for that group (see FIGS. 18 and 19).

Row | Structure (SMILES) | Mean Fold Induction at 1.0 μM Concentration [1] [fold] | Mean Fold Induction at 1.0 μM Concentration [2] [fold] | Potency as activator of CfEcR compared to DmEcR [3] | Sensitivity of the EcR/RXR switch to the ligand [4] | Induction of gene expression (relative performance of ligands) [5]
1 | CC(C)CC[C@@H](O)[C@](C)(O)[C@H]1CC[C@@]2(O)C3=CC(=O)[C@]4(O)C[C@@H](O)[C@@H](O)C[C@]4(C)[C@H]3[C@H](O)C[C@]12C [Muristerone A, reference compound] | 1.0 | 1.0 | – | – | –
2 | Cc1cc(C)cc(C(=O)N(NC(=O)c2ccc3c(c2C)OCCO3)C(C)(C)C)c1 [N-(3,4-(1,2-ethylenedioxy)-2-methylbenzoyl)-N′-(3,5-dimethylbenzoyl)-N′-tert-butylhydrazine] | – | 54 | more potent activators of CfEcR as compared to Drosophila melanogaster EcR (DmEcR) | – | –
3 | CC(C)CC[C@@H](O)[C@](C)(O)[C@H]1CC[C@@]2(O)C3=CC(=O)[C@@H]4C[C@@H](O)[C@@H](O)C[C@]4(C)[C@H]3CC[C@]12C [Ponasterone A, reference compound] | 1.0 | 1.0 | – | insensitive | –
4 | CC(C)(C)N(NC(=O)c1ccccc1)C(=O)c1ccccc1 [RH5849, N-tert-butyl-N,N′-dibenzoylhydrazine] | – | – | – | – | did not show a significant response
